Reference: US11377442B2, “Small molecule agonists and antagonists of NR2F6 activity” (ZANDER THERAPEUTICS, INC., priority 2016, dated 2022)
Where two headings read alike, the source gives them in different places.

What was measured:
Assay type in all cases: cell-based
NR2F6 = biological target: T1, NR2F6 (Homo sapiens, UniProt P10588); assay: NR2F6 agonist screening, Firefly signal cmpd/DMSO; conditions: for Firefly F4, cmpd/DMSO (mean): Table 14; for Firefly, cmpd/DMSO repeat 1 / Firefly, cmpd/DMSO repeat 2: first set screening, 10 μM
T1 construct: expressed in transfected cells; also transient transfection
T1 sequence (P10588 1-404): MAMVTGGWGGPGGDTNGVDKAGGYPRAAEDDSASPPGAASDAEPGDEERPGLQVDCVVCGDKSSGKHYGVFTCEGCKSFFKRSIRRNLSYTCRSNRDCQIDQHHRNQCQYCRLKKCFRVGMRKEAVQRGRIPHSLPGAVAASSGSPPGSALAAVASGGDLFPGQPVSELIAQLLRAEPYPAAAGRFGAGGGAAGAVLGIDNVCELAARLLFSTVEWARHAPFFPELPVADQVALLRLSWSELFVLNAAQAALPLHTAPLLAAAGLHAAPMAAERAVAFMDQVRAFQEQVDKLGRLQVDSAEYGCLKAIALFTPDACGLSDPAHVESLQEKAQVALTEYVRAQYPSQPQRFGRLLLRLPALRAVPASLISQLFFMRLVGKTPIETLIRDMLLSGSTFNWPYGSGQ

ERα = biological target: T2, ERα (Homo sapiens, UniProt P03372); assay: Counterscreening, Firefly signal with ERα transient transfection (Firefly_ERa); conditions: ERα transient transfection, 10 μM
T2 construct: expressed in transfected cells
T2 sequence (P03372 1-595): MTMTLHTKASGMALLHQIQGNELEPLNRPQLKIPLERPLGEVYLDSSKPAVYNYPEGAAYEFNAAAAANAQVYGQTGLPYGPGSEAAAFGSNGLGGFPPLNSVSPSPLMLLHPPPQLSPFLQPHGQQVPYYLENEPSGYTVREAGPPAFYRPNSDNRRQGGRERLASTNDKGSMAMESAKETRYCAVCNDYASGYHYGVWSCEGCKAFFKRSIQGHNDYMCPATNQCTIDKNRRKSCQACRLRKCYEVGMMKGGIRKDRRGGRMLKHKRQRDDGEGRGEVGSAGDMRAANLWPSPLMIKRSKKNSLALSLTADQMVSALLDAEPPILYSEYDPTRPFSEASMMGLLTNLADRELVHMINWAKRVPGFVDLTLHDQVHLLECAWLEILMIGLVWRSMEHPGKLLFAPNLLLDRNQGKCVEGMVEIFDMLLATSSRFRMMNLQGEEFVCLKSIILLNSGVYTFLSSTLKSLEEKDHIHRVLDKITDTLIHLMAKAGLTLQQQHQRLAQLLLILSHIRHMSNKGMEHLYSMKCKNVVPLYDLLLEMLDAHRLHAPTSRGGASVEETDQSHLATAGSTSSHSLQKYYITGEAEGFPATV
Description: The methodology for screening candidate compounds as NR2F6 agonists was as follows: For primary screening, hit criteria was ACT %>DMSO control+5*SD (DSO control) at 10 μM, or any compound with S/B>2. For rescreening, hit criteria was ACT %>DMSO control+3*SD (DSO control) in each replicate at 10 μM. For counterscreening, hit criteria was mean ACT<DMSO control+3*SD (DMSO control) with ERα transient transfection in duplicate at 10 μM.

Renilla = Renilla signal in NR2F6 agonist screening, cmpd/DMSO; conditions: for fold induction at 2 µM / fold induction at 10 µM / fold induction at 40 µM: Renilla
Renilla_ERa = assay: Renilla signal in ERα counterscreen (Renilla_ERa); conditions: ERα transient transfection, 10 μM
HEK293 pGL4 = assay: Firefly_pGL signal, cmpd/DMSO (pGL4 control cells); conditions: Homo sapiens, HEK293, Table 14, read-out: Firefly pGL4, cmpd/DMSO (mean)
[1] = Table 14, read-out: Renilla F4, cmpd/DMSO (mean)
[2] = Table 14, 10 uM, read-out: Renilla F4, cmpd/DMSO (mean)
[3] = first set screening, 10 μM, repeat 1, read-out: Renilla, cmpd/DMSO repeat 1
[4] = first set screening, 10 μM, repeat 2, read-out: Renilla, cmpd/DMSO repeat 2
[5] = repeat 1, read-out: Renilla_ERa, cmpd/DMSO repeat 1
[6] = repeat 2, read-out: Renilla_ERa, cmpd/DMSO repeat 2
[7] = first set screening, 10 μM, repeat 1
[8] = first set screening, 10 μM, repeat 2

SMILES | Firefly F4, cmpd/DMSO (mean) (NR2F6; 2 uM) | Firefly F4, cmpd/DMSO (mean) (NR2F6; 10 uM) | Firefly F4, cmpd/DMSO (mean) (NR2F6; 40 uM) | Firefly, cmpd/DMSO repeat 1 (NR2F6) | Firefly, cmpd/DMSO repeat 2 (NR2F6) | Firefly_ERa, cmpd/DMSO repeat 1 (ERα) | Firefly_ERa, cmpd/DMSO repeat 2 (ERα) | fold induction at 2 µM (Renilla; [1]) | fold induction at 10 µM (Renilla; [2]) | fold induction at 40 µM (Renilla; [1]) | fold induction at 10 µM (Renilla; [3]) | fold induction at 10 µM (Renilla; [4]) | fold induction at 10 µM (Renilla_ERa; [5]) | fold induction at 10 µM (Renilla_ERa; [6]) | fold induction at 2 µM (HEK293 pGL4) | fold induction at 10 µM (HEK293 pGL4) | fold induction at 40 µM (HEK293 pGL4) | Renilla, cmpd/DMSO repeat 1 (Renilla; [7]) | Renilla, cmpd/DMSO repeat 2 (Renilla; [8]) | Renilla_ERa, cmpd/DMSO repeat 1 (Renilla_ERa; repeat 1) | further results
O=C(COc1ccccc1C(=O)N1CCOCC1)NCCc1ccccc1 [Compound 22] | 1.3 | 1.4 | 0.6 | 2.1 | 2.9 | 1.5 | 2.2 | 0.8 | 1.1 | 1 | 1.1 | 1.3 | 0.8 | 1.1 | 1.6 | 1 | 1.5 | – | – | – | –
O=C(Nc1ccc(Cl)cn1)c1ccc(I)cc1 [Compound 18] | – | – | – | 3.8 | 3.8 | 2.5 | 1.9 | – | – | – | 3.3 | 4.2 | 0.8 | 0.9 | – | – | – | – | – | – | –
CCn1c2c(c(=O)[nH]c1=O)C(c1ccc(C(C)C)cc1)C1=C(N2)c2ccccc2C1=O (centres unmarked) [Compound 21] | – | – | – | 2.4 | 2.2 | 1.1 | 1.0 | – | – | – | – | – | – | – | – | – | – | 3.8 | 3.0 | 1.1 | Renilla_ERa, cmpd/DMSO repeat 2 (Renilla_ERa; repeat 2): 0.9
Nc1nonc1-c1noc(-c2cccc(COc3ccc(Cl)cc3Cl)c2)n1 [Compound 23] | – | – | – | 3.0 | 1.9 | 1.8 | 1.8 | – | – | – | – | – | – | – | – | – | – | 4.6 | 3.4 | 1.1 | Renilla_ERa, cmpd/DMSO repeat 2 (Renilla_ERa; repeat 2): 1.2
Cc1ccn2cc(-c3ccc(F)cc3)cc2c1 [Compound 17] | 1.9 | 1.2 | 1.3 | 2.2 | 2.4 | 2.5 | 2.2 | 0.8 | 1 | 1 | 1.3 | 1.4 | 1.3 | 1 | 1.7 | 1.6 | 1.3 | – | – | – | –
O=C(Nc1cccc(O)c1)c1cc(-c2ccc(Cl)c(Cl)c2)on1 [Compound C5] | 0.9 | 0.8 | 0.8 | 2.2 | 1.7 | 1.6 | 2.0 | 0.7 | 0.5 | 1.1 | 1.3 | 1.4 | 1.2 | 1 | 1.3 | 1.2 | 1 | – | – | – | –
Cc1ccnc(NC(=O)c2cc3sc4ccccc4c3s2)c1 [Compound 20] | – | – | – | 2.2 | 2.1 | 1.5 | 1.7 | – | – | – | – | – | – | – | – | – | – | 4.4 | 4.8 | 1.1 | Renilla_ERa, cmpd/DMSO repeat 2 (Renilla_ERa; repeat 2): 0.9
